The text below walks through data of ChEMBL document CHEMBL3272113, “Inhibitors of the luteinizing hormone-releasing hormone based upon modifications in the 2, 3, and 6 positions” (J Med Chem, 1976).

Data set [1] is described as follows: Retardation factor of the compound using 1-BuOH-AcOH-EtOAc-H2O at ratio of 1:1:1:1 as solvent system by thin layer chromatography. The data set is classed as physicochemical.
A short description of data set [2]: Retardation factor of the compound using EtOH-H2O at ratio of 7:3 as solvent system by thin layer chromatography. The data set is classed as physicochemical.
A short description of data set [3]: Retardation factor of the compound using EtOAc-pyridine-AcOH-H2O at ratio of 5:5:1:3 as solvent system by thin layer chromatography. Format: physicochemical.
The nature of data set [4]: Retardation factor of the compound using 2-propanol-1N AcOH at ratio of 2:1 as solvent system by thin layer chromatography. Format: physicochemical.
Data set [5] is described as follows: Retardation factor of the compound using CHCl3-MeOH-concentrated NH4OH as solvent system by thin layer chromatography. Format: physicochemical.
For data set [6], the target named is Gonadotropin-releasing hormone receptor (Rattus norvegicus) (UniProt P30969). The data set is described as follows: Agonist activity at LH-RH receptor in rat pituitary gland assessed as change in FSH secretion at 100000 ng/ml.
Gonadotropin-releasing hormone receptor (Rattus norvegicus), sequence (P30969 whole entry, looked up): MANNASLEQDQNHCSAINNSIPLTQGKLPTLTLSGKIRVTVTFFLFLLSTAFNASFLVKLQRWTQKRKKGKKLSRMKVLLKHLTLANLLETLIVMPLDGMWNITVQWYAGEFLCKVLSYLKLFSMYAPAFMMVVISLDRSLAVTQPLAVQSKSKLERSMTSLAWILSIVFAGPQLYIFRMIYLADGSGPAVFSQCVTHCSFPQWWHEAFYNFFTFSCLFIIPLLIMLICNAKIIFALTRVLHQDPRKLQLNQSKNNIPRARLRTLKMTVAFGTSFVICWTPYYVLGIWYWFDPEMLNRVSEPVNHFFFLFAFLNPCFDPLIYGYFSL
Data set [7] shares this target. The data set is described as follows: Antagonist activity at LH-RH receptor in rat pituitary gland assessed as inhibition of LH-RH-induced FSH release.
The target is the same in data set [8]. The data set is described as follows: Agonist activity at LH-RH receptor in rat pituitary gland assessed as change in luteinizing hormone secretion at 100000 ng/ml.
Data set [9] has the same target. The data set is described as follows: Antagonist activity at LH-RH receptor in rat pituitary gland assessed as inhibition of LH-RH-induced luteinizing hormone release.
Data set [10] has the same target. The data set is described as follows: Antagonist activity at LH-RH receptor in rat pituitary gland assessed as inhibition of LH-RH-induced FSH release by measuring change in FSH level in medium at 10000 ng/ml.
The target is the same in data set [11]. The data set is described as follows: Antagonist activity at LH-RH receptor in rat pituitary gland assessed as inhibition of LH-RH-induced FSH release by measuring change in FSH level in medium at 100000 ng/ml.
For data set [12] the target is unchanged. The data set is described as follows: Antagonist activity at LH-RH receptor in rat pituitary gland assessed as inhibition of LH-RH-induced luteinizing hormone release by measuring change in LH level in medium at 10000 ng/ml.
The target is the same in data set [13]. The data set is described as follows: Antagonist activity at LH-RH receptor in rat pituitary gland assessed as inhibition of LH-RH-induced luteinizing hormone release by measuring change in LH level in medium at 100000 ng/ml.
For data set [14] the target is unchanged. The data set is described as follows: Antagonist activity at LH-RH receptor in rat pituitary gland assessed as inhibition of LH-RH-induced FSH release by measuring change in FSH level in medium at 1000 ng/ml.
The target is the same in data set [15]. The data set is described as follows: Antagonist activity at LH-RH receptor in rat pituitary gland assessed as inhibition of LH-RH-induced luteinizing hormone release by measuring change in LH level in medium at 1000 ng/ml.
The test system of data set [16] is Gonadotropin-releasing hormone receptor. The data set is described as follows: Agonist activity at LH-RH receptor (unknown origin) relative to LH-RH.
Data set [17] can be described thus: Retardation factor of the compound using 1-BuOH-pyridine-AcOH-H2O at ratio of 30:20:6:24 as solvent system by thin layer chromatography. Format: physicochemical.
The subject of data set [18] is Rattus norvegicus. The data set is described as follows: Induction of LH release in immature rat administered as infusion relative to LH-RH. The data set is classed as functional.
The test system of data set [19] is Rattus norvegicus. The data set is described as follows: Induction of FSH release in immature rat administered as infusion relative to LH-RH. Format: functional.

Each structure is given as a SMILES string. Square brackets hold non-standard residues; d marks the D form. Peptide text beside a SMILES is read from it. pGlu = O=C1CC[C@@H](C(=O)O)N1

Regarding `CC(C)C[C@H](NC(=O)[C@@H]1CCC(=O)N1)C(=O)N[C@H](C(=O)N[C@@H](CO)C(=O)N[C@@H](Cc1ccc(O)cc1)C(=O)N[C@H](C)C(=O)N[C@@H](CC(C)C)C(=O)N[C@@H](CCCNC(=N)N)C(=O)N1CCC[C@H]1C(=O)NCC(N)=O)C(C)C`, the Rf is given as 0.66 in [1]; 0.62 in data set [2]; 0.71 in [3]; 0.57 in data set [4]; 0.58 in data set [5]. In addition, the Activity is -185 ng/mL in [6]; -37 ng/mL in [8]; 3770 ng/mL in data set [10]; -399 ng/mL in data set [11]; 150 ng/mL in data set [12]; 13 ng/mL in data set [13]. Moreover, the MED in data set [7] and in data set [9] was 100 µg/mL throughout.

Turning to `CC(C)C[C@H](NC(=O)[C@@H](NC(=O)[C@@H]1CCC(=O)N1)C(C)C)C(=O)N[C@@H](CO)C(=O)N[C@@H](Cc1ccc(O)cc1)C(=O)N[C@H](C)C(=O)N[C@@H](CC(C)C)C(=O)N[C@@H](CCCNC(=N)N)C(=O)N1CCC[C@H]1C(=O)NCC(N)=O`, the Rf in data set [1] turned out to be 0.66; in data set [2], 0.62; in [3], 0.71; in data set [4] it was 0.58; in data set [5], 0.58. Moreover, the Activity was 158 ng/mL in [6]; -9 ng/mL in data set [8]; 6170 ng/mL in [14]; 1260 ng/mL in [10]; 246 ng/mL in [15]; 28 ng/mL in [12]. Moreover, the MED in [7] and in data set [9] was 10 µg/mL in each case.

`CC(C)C[C@H](NC(=O)[C@@H](C)NC(=O)[C@H](Cc1ccc(O)cc1)NC(=O)[C@H](CO)NC(=O)[C@@H](NC(=O)[C@@H](NC(=O)[C@@H]1CCC(=O)N1)C(C)C)C(C)C)C(=O)N[C@@H](CCCNC(=N)N)C(=O)N1CCC[C@H]1C(=O)NCC(N)=O`: the Rf is on record as 0.64 in data set [1]; 0.62 in data set [2]; 0.7 in data set [3]; 0.54 in data set [4]; 0.53 in [5]. In addition, the Activity was found to be 850 ng/mL in [6]; 17 ng/mL in data set [8]; 4810 ng/mL in data set [10]; 770 ng/mL in data set [11]; 313 ng/mL in data set [12]; 35 ng/mL in data set [13]. In addition, the MED in data set [7] and in data set [9] was 100 µg/mL in each case.

As for `CC(C)C[C@H](NC(=O)[C@@H](C)NC(=O)[C@H](Cc1ccc(O)cc1)NC(=O)[C@H](CO)NC(=O)[C@H](Cc1c[nH]c2ccccc12)NC(=O)[C@H](Cc1cnc[nH]1)NC(=O)[C@@H]1CCC(=O)N1)C(=O)N[C@@H](CCCNC(=N)N)C(=O)N1CCC[C@H]1C(=O)NCC(N)=O`, the Activity in [16] was 300%.

For `CC(C)C[C@H](NC(=O)CNC(=O)[C@H](Cc1ccc(O)cc1)NC(=O)[C@H](CO)NC(=O)[C@H](CC(C)C)NC(=O)[C@H](CC(C)C)NC(=O)[C@@H]1CCC(=O)N1)C(=O)N[C@@H](CCCNC(=N)N)C(=O)N1CCC[C@H]1C(=O)NCC(N)=O` ([pGlu]LLSYGLRPG-NH2), the MED in data set [7] and in [9] was 100 µg/mL throughout.

In the case of `CC(C)C[C@H](NC(=O)[C@@H]1CCC(=O)N1)C(=O)N[C@@H](CC(C)C)C(=O)N[C@@H](CO)C(=O)N[C@@H](Cc1ccc(O)cc1)C(=O)N[C@H](C)C(=O)N[C@@H](CC(C)C)C(=O)N[C@@H](CCCNC(=N)N)C(=O)N1CCC[C@H]1C(=O)NCC(N)=O`, the Rf worked out at 0.69 in data set [1]; 0.63 in data set [2]; 0.8 in [3]; 0.59 in data set [17]; 0.67 in [4]. Besides, the Activity in data set [6] came to 1690 ng/mL; in [8], 26 ng/mL; in data set [14] it was 9280 ng/mL; in [10], 2700 ng/mL; in [15] it was 460 ng/mL; in [12] it was 3 ng/mL. Also, the MED in [7] and in data set [9] was 10 µg/mL in each case.

Regarding `CC(C)C[C@H](NC(=O)CNC(=O)[C@H](Cc1ccc(O)cc1)NC(=O)[C@H](CO)NC(=O)[C@H](Cc1c[nH]c2ccccc12)NC(=O)[C@@H]1CCC(=O)N1)C(=O)N[C@@H](CCCNC(=N)N)C(=O)N1CCC[C@H]1C(=O)NCC(N)=O` ([pGlu]WSYGLRPG-NH2), the MED in data set [7] and in data set [9] was 30 µg/mL in each case.

As for `CCNC(=O)[C@@H]1CCCN1C(=O)[C@H](CCCNC(=N)N)NC(=O)[C@H](CC(C)C)NC(=O)[C@@H](C)NC(=O)[C@H](Cc1ccc(O)cc1)NC(=O)[C@H](CO)NC(=O)[C@H](Cc1c[nH]c2ccccc12)NC(=O)[C@H](Cc1cnc[nH]1)NC(=O)[C@@H]1CCC(=O)N1`, the figures for the Activity in [18] and in data set [19] were 1600% and 1200%, respectively.
